Laboratory results from ChEMBL document CHEMBL3286266, “Development of novel benzomorpholine class of diacylglycerol acyltransferase I inhibitors” (ACS Med Chem Lett, 2014).
Values after ≈ are worked out from the molar mass of the structure shown. One block for each compound: values may come before it. Active and inactive are the calls of the source. The rule behind the calls is not given here.

How the values were obtained:
[1] = Permeability in human Caco2 cells; format: ADME, cell-based; details: Caco-2, read-out: permeability
[2] = Solubility of the compound; format: physicochemical
Mus musculus [3] = experiment: Reduction in triglycerides level in mouse at 10 mg/kg, po after 2 hrs by postprandial triglyceride assay; format: functional
[4] = molecular target: T1, Diacylglycerol O-acyltransferase 2 (Homo sapiens) (UniProt Q96PD7); experiment: (§1) Inhibition of human DGAT2 expressed in Sf9 insect cells using 1,2-dioleoyl-sn-glycerol and [14C]-palmitoyl-CoA substrate by scintillation counting analysis
T1 sequence (whole entry): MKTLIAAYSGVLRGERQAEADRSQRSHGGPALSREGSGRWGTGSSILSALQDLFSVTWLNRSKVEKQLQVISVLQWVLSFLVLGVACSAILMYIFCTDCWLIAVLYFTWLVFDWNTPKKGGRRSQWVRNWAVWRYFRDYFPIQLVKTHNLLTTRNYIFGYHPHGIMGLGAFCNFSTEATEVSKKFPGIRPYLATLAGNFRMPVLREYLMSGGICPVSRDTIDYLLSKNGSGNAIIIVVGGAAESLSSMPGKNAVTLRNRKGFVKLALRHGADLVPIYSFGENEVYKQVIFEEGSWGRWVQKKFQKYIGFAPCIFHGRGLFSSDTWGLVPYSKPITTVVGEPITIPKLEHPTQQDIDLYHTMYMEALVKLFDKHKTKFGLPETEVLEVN

[5] = molecular target: T2, Sterol O-acyltransferase 2 (Homo sapiens, UniProt O75908); experiment: Inhibition of human ACAT2 expressed in Sf9 insect cells using [14C]-oleoyl-CoA by scintillation counting analysis
T2 sequence (O75908 whole entry): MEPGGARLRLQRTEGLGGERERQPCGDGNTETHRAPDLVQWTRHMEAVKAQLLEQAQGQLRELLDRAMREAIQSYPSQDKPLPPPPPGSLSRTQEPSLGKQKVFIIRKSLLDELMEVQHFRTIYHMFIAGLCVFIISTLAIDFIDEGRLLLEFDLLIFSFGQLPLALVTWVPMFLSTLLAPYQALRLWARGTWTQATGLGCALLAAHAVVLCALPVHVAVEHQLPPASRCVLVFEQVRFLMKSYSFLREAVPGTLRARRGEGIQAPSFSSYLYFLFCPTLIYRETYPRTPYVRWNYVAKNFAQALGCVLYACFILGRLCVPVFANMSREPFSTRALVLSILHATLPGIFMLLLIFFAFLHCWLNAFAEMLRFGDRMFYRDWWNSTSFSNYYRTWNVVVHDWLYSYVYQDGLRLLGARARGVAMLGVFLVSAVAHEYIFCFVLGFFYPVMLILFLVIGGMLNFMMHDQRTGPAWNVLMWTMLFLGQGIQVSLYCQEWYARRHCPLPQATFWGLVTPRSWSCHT

Mus musculus [6] = experiment: Reduction in triglycerides level in mouse at 3 mg/kg, po after 2 hrs by postprandial triglyceride assay; format: functional
[7] = AUC in rat at 10 mg/kg; format: ADME, organism-based; set-up: dose 10 mg/kg; details: plasma
[8] = molecular target: T3, Diacylglycerol O-acyltransferase 1 (Mus musculus, UniProt Q9Z2A7); experiment: Inhibition of mouse DGAT1 expressed in Sf9 insect cells using 1,2-dioleoyl-sn-glycerol and [14C]-palmitoyl-CoA substrate by scintillation counting analysis
T3 sequence (Q9Z2A7 whole entry): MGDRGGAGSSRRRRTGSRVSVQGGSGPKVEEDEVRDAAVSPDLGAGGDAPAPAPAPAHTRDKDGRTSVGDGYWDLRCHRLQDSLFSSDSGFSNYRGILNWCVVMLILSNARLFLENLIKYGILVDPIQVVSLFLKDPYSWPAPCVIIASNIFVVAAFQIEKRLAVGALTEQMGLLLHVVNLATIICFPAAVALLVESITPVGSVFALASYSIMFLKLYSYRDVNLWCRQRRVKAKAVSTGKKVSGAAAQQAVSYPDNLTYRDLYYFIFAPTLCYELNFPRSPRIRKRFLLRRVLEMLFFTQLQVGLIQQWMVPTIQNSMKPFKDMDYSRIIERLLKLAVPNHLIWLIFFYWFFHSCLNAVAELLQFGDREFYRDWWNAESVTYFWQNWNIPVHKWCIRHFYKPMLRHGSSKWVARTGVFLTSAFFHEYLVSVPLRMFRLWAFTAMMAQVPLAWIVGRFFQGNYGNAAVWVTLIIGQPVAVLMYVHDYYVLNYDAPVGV

[9] = Metabolic stability in human plasma assessed as compound loss measured at 12 hrs at 25 degC; format: ADME, cell-free; details: read-out: Drug metabolism
[10] = molecular target: T4, Diacylglycerol O-acyltransferase 1 (Homo sapiens, UniProt O75907); experiment: Inhibition of human DGAT1 expressed in Sf9 insect cells using 1,2-dioleoyl-sn-glycerol and [14C]-palmitoyl-CoA substrate by scintillation counting analysis
T4 sequence (O75907 whole entry): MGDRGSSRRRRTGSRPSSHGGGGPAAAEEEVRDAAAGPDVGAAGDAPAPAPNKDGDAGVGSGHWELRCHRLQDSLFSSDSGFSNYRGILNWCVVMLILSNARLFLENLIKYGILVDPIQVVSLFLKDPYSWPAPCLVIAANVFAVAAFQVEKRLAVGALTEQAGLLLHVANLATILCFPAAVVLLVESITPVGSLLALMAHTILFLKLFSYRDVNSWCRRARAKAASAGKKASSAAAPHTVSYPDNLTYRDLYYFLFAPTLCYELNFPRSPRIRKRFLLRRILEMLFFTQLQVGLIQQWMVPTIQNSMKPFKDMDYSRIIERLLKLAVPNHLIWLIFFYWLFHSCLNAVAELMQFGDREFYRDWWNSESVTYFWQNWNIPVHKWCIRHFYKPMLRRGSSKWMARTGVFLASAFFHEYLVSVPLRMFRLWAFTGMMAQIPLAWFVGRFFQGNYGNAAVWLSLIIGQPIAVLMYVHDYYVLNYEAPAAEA

[11] = molecular target: T5, Diacylglycerol O-acyltransferase 2 (Homo sapiens, UniProt Q96PD7); experiment: as §1
T5 sequence (Q96PD7 whole entry): T1 sequence (whole entry)

[12] = molecular target: T6, Sterol O-acyltransferase 1 (Homo sapiens, UniProt P35610); experiment: Inhibition of human ACAT1 expressed in Sf9 insect cells using [14C]-oleoyl-CoA by scintillation counting analysis
T6 sequence (P35610 whole entry): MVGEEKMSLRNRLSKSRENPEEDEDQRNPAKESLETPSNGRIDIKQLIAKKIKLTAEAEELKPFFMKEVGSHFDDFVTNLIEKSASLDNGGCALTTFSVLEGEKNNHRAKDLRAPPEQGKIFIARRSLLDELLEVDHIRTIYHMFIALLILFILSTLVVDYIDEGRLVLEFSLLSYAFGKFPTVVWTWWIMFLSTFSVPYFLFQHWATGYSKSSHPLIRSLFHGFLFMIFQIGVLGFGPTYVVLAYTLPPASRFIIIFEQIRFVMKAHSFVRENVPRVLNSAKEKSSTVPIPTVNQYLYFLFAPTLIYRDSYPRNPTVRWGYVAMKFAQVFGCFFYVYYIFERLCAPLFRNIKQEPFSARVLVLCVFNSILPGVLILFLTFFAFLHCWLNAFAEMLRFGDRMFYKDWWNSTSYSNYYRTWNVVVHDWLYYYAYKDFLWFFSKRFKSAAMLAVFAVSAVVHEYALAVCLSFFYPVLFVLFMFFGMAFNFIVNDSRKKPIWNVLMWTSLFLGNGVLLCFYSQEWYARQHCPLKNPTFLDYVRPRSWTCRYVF

Cytochrome P450 2C9 = Cytochrome P450 2C9 (Homo sapiens, UniProt P11712); experiment: Inhibition of CYP2C9 (unknown origin)
Chain of Cytochrome P450 2C9 (P11712 whole entry): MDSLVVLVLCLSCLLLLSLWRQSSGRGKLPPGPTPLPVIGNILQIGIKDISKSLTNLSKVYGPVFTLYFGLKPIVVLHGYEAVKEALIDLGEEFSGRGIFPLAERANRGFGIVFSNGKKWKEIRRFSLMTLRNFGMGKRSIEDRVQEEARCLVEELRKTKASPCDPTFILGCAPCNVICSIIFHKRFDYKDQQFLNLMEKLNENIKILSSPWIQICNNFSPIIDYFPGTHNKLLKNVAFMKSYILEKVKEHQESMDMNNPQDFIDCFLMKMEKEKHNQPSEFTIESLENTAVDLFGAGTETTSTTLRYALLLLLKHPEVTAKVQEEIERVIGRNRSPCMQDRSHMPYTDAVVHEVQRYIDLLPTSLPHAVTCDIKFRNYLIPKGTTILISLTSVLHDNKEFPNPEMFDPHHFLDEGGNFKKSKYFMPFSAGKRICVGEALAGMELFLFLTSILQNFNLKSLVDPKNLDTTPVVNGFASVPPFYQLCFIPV

[13] = AUC in mouse at 10 mg/kg; format: ADME, organism-based; set-up: dose 10 mg/kg; details: plasma
[14] = Total AUC in rat; format: ADME, organism-based; set-up: time AUCmax; details: in vivo
[15] = Cmax in rat; format: ADME, organism-based; details: in vivo
[16] = Tmax in rat; format: ADME, organism-based; details: in vivo
[17] = Solubility in plasma (unknown origin) at pH 7; format: ADME, cell-free
Homo sapiens [18] = organism: Homo sapiens; experiment: Selectivity for human DGAT1 over human DGAT2
Homo sapiens [19] = organism: Homo sapiens; experiment: Selectivity for human DGAT1 over human ACAT
[20] = Clearance in rat liver hepatocytes measured per million cells; format: ADME, cell-based, Hepatocyte; details: read-out: CLH
[21] = Clearance in human liver hepatocytes measured per million cells; format: ADME, cell-based, Hepatocyte; details: read-out: CLH
CYP1A1 = molecular target: T7, CYP1A1 (Homo sapiens, UniProt P04798); experiment: Induction of CYP1A1 (unknown origin) at 30 uM relative to control; format: ADME; details: read-out: FC
T7 sequence (P04798 whole entry): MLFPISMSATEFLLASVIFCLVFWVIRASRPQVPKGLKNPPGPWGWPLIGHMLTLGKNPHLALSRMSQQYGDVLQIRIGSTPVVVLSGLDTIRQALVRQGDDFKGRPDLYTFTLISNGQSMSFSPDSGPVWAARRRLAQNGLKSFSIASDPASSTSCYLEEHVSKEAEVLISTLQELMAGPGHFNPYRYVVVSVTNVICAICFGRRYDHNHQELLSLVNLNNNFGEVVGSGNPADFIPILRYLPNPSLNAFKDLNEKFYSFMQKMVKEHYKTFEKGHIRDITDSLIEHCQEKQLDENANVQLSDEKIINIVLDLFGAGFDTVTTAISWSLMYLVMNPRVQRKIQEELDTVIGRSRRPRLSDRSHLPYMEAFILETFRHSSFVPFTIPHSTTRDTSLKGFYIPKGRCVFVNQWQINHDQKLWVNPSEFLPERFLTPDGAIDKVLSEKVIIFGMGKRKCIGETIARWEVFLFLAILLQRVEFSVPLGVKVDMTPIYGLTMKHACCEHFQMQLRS

Mus musculus [22] = experiment: Reduction in triglycerides level in mouse at 1 mg/kg, po after 2 hrs by postprandial triglyceride assay; format: functional
Mus musculus [23] = experiment: Reduction in triglycerides level in mouse at 0.3 mg/kg, po after 2 hrs by postprandial triglyceride assay; format: functional
[24] = Total AUC in rat at 10 mg/kg; format: ADME, organism-based; set-up: time AUCmax, dose 10 mg/kg; details: in vivo

SMILES: O=C(O)C[C@H]1CC[C@H](c2ccc(-c3ccc4c(c3)OCCN4C(=O)Nc3ccc(F)cc3C(F)(F)F)cc2)CC1
Papp [1]: 23.9 ×10⁻⁶ cm/s
solubility [2]: 100 µM (≈ 55.7 µg/mL)
inhibition in vivo at 10 mg/kg (Mus musculus [3]): 91%
inhibition [4]: inactive
IC50 [5]: 9600 nM
inhibition in vivo at 3 mg/kg (Mus musculus [6]): 59%
AUC [7]: 23 µM·h
IC50 [8]: 35 nM

SMILES: O=C(O)C[C@H]1CC[C@H](c2ccc(-c3ccc4c(c3)OCCN4C(=O)Nc3ccccc3)cc2)CC1
inhibition in vivo at 10 mg/kg (Mus musculus [3]): 52%
metabolised at 12 h [9]: 10%

SMILES: O=C(O)C[C@H]1CC[C@@H](c2ccc(-c3ccc4c(c3)OCCN4C(=O)Nc3ccccc3)cc2)CC1
inhibition in vivo at 3 mg/kg (Mus musculus [6]): 2%
IC50 [10]: 52 nM
IC50 [8]: 45 nM

SMILES: CCc1ccccc1NC(=O)N1C[C@H](C)Oc2cc(-c3ccc([C@H]4CC[C@H](CC(=O)O)CC4)cc3)ccc21
inhibition in vivo at 3 mg/kg (Mus musculus [6]): 46%
IC50 [10]: 85 nM
IC50 [8]: 53 nM

SMILES: CC1CN(C(=O)Nc2ccccc2)c2ccc(-c3ccc([C@H]4CC[C@H](CC(=O)O)CC4)cc3)cc2O1 (some centres not stated)
inhibition in vivo at 10 mg/kg (Mus musculus [3]): 85%
IC50 [5]: 5000 nM
IC50 [10]: 91 nM
IC50 [8]: 33 nM
AUC [13]: 79 µM·h

SMILES: O=C(O)C[C@H]1CC[C@H](c2ccc(-c3ccc4c(c3)OCCN4C(=O)NCCCCc3ccccc3)cc2)CC1
inhibition in vivo at 10 mg/kg (Mus musculus [3]): 23%
IC50 [8]: 36 nM

Second part, led by results:

IC50 [11]: 10000 nM
IC50 [12]: 10000 nM
IC50 [5]: 2000 nM
IC50 (Cytochrome P450 2C9): 14000 nM
IC50 [8]: 18 nM
AUC [13]: 34 µM·h
SMILES: C[C@@H]1CN(C(=O)Nc2ccccc2)c2ccc(-c3ccc([C@H]4CC[C@H](CC(=O)O)CC4)cc3)cc2O1

Papp [1]: 3.5 ×10⁻⁶ cm/s
IC50 [8]: 27 nM
AUC [14]: 0.195 µM·h
Cmax [15]: 65 nM
Tmax [16]: 2 h
solubility [17]: 5 µM (≈ 2.46 µg/mL)
SMILES: CCCCCCCNC(=O)N1CCOc2cc(-c3ccc([C@H]4CC[C@H](CC(=O)O)CC4)cc3)ccc21
inhibition in vivo at 3 mg/kg (Mus musculus [6]): 48%

IC50 [8]: 45 nM
AUC [13]: 63 µM·h
SMILES: CCC1CN(C(=O)Nc2ccccc2)c2ccc(-c3ccc([C@H]4CC[C@H](CC(=O)O)CC4)cc3)cc2O1 (some centres not stated)
inhibition in vivo at 10 mg/kg (Mus musculus [3]): 88%

IC50 [10]: 110 nM
IC50 [8]: 50 nM
SMILES: CCc1ccccc1NC(=O)N1CC(C)Oc2cc(-c3ccc([C@H]4CC[C@H](CC(=O)O)CC4)cc3)ccc21 (some centres not stated)
inhibition in vivo at 3 mg/kg (Mus musculus [6]): 92%

Selectivity ratio (Homo sapiens [18]): 100
Selectivity ratio (Homo sapiens [19]): 100
Papp [1]: 17 ×10⁻⁶ cm/s
solubility [2]: 20 µM (≈ 9.05 µg/mL)
hepatocyte CLint [20]: 3.9 µL/min/1e6 cells
hepatocyte CLint [21]: 7.6 µL/min/1e6 cells
fold induction at 30 µM (CYP1A1): 3
SMILES: O=C(O)C[C@H]1CC[C@H](c2ccc(-c3ccc4c(ccn4C(=O)Nc4ccccc4)c3)cc2)CC1
inhibition in vivo at 10 mg/kg (Mus musculus [3]): 45%

IC50 [8]: 170 nM
SMILES: O=C(Nc1ccccc1)N1CCOc2cc(-c3ccc([C@H]4CC[C@H](Cc5nnn[nH]5)CC4)cc3)ccc21
inhibition in vivo at 10 mg/kg (Mus musculus [3]): 9%

IC50 (Cytochrome P450 2C9): 500 nM
IC50 [8]: 73 nM
AUC [24]: 46 µM·h
SMILES: CCC1CN(C(=O)Nc2ccccc2)c2ccc(-c3ccc(OCC(C)(C)C(=O)O)nc3)cc2O1 (configuration not stated)
inhibition in vivo at 1 mg/kg (Mus musculus [22]): 100%
inhibition in vivo at 0.3 mg/kg (Mus musculus [23]): 73%
